Structures can show the parent of a compound that is named as a salt. Each block holds one compound with its values, some of them ahead of it.
Key:
[1] = system: GABAA receptors; test: Electrophysiology assay, two-electrode voltage clamp in Xenopus oocytes expressing GABAA receptors; format: cell-based; conditions: GABA EC10, screening concentration of 10 μM, subunit combination not stated
Description: mRNA was prepared from lyophilized plasmid pellets containing cDNA inserts encoding the specific GABAA receptor subunit. cDNAs encoding the α2, α3, and γ3 subunits were subcloned into pBluescript, SK^−. cDNAs encoding the α1 and α5 subunits were subcloned into prC while cDNA encoding the β2 subunit was subcloned into pcDNA1. The cDNA construct encoding the γ2s subunit is in the pGH19 expression construct. Overnight cultures of transformed DH5a bacterial cells were performed to grow sufficient quantities for maxiprep isolation of the plasmid cDNA. The resulting plasmid cDNA was linearized by digestion with an appropriate restriction enzyme that cleaves distal to the cDNA insert (XbaI for α1,2, β2, and γ3 or NotI for α3,5 and γ2, respectively). Following digestion, plasmid cDNA was treated with proteinase K and extracted with phenol/chloroform/isoamyl alcohol, followed by ethanol precipitation. cDNA quality was assessed by agarose-gel electrophoresis (1.5% agarose gel). Samples were stored at −20° C. until use. In vitro transcription was performed with T7 RNA polymerase. mRNA was then stored at −80° C. until use. Plasmids were linearized with appropriate restriction enzymes before in vitro transcription using the Message Machine kit (Ambion, Austin, Tex.).
GABAA Receptor Expression in Xenopus oocytes.
GABAA receptor expression in Xenopus oocytes: Following 45 min of 0.15% Tricaine anesthesia, an ovarian section containing the follicular oocytes was removed from the frog through a lateral abdominal incision. Oocytes were immediately placed in a calcium-free solution (NaCl 96 mM, MgCl2 1 mM, KCl 2 mM, Hepes 50 mM, pyruvate 2.5 mM, gentamycin 100 μg/mL, penicillin-streptomycin 50 U/mL, pH 7.4). Following 1.5-2 hour incubation in 0.2% collagenase (type II, Sigma Chemical Co., St. Louis, Mo.) at room temperature, individual Dumont stage V and VI oocytes were transferred to an incubator and maintained overnight in Barth's solution (NaCl 84 mM, NaHCO3 2.4 mM, MgSO4 0.82 mM, KCl 1 mM, Ca(NO3)2 0.33 mM, CaCl2 0.41 mM, Tris/HCl 7.5 mM, pyruvate 2.5 mM, gentamycin 50 μg/mL, penicillin-streptomycin, 100 units/mL, pH 7.4) at 18-20° C. and used for experiments 1-5 days post-injection. Oocytes were injected solution using an electronic microinjector (Drummond, Broomall, Pa.) with 50 nL of RNA containing 0.3-0.5 ng of each subunit RNA in a 1:1:1 ratio. The injected oocytes were used for experiments after 1-5 days of incubation in Barth's solution at 18-20° C.
Measurements of ion currents from oocytes expressing GABAA receptors were performed using a Warner two-electrode voltage-clamp amplifier (Warner Instruments, Inc., Foster City, Calif.) (Park-Chung, M., et al. (1999) Brain Res. 830: 72-87 incorporated herein in its entirety). Microelectrodes were fabricated from borosilicate glass capillaries with a programmed pipette puller (Sutter Instrument Co., Calif.). Microelectrode resistance was 1-3 MΩ when filled with 3 M KCl. The oocyte recording chamber was continuously perfused with Ringer solution. Oocytes were clamped at a holding potential of −70 mV during data acquisition. The membrane current was filtered at 10 Hz and sampled at 100 Hz. Compounds were applied by a gravity-driven external perfusion system. The working volume of the recording chamber was 30 μL and the rate of the perfusion was approximately 50 μL/sec. Compound application was 10-20 sec followed by a 90 sec wash. Data acquisition and external perfusion was computer controlled by custom-developed software. All experiments were performed at room temperature (22-24° C.). Dose-response data from each oocyte were fitted to the Hill equation by non-linear regression using the equation: IGABA=Emax/(1+(EC50/c)^n^H)
Emax is the maximum response, EC50 is the concentration producing 50% of the maximal response, nH is the Hill coefficient and c is the concentration of agonist. […]

[2] = system: benzodiazepine site of GABAA; test: Binding assay, benzodiazepine site of GABAA (binding assay 1: rat brain, (3H)-flunitrazepam; binding assay 2: bovine hippocampal membranes, [3H]-RY80); conditions: radioligand binding; for % Inhibition at 10 μM: 10 μM test compound; for % Inhibition at 0.1 μM: 0.1 μM test compound
Description: The ability of a compound disclosed herein to act as ligand to the benzodiazepine site of GABAA can be determined using pharmacological models which are well known in the art using the following assay.
Binding assay 1: Whole brain (except cerebellum) of male Wistar derived rats weighing 175±25 g were used to prepare GABAA central benzodiazepine receptor in Na—K phosphate buffer pH 7.4. A 5 mg aliquot was incubated with 1 nM (^3H)-flunitrazepam for 60 minutes at 25° C. Experiments were performed in the presence or absence of 30 μM of GABA. Non-specific binding was estimated in the presence of 10 μM of diazepam. Membranes were filtered and washed, the filters were then counted to determine (^3H)-flunitrazepam specifically bound. Test compounds were tested in duplicate according to the required concentrations (Damm, H. W., et al. (1978) Res. Comm. Chem. Pathol. Pharmacol. 22: 597-560 incorporated herein in its entirety; Speth, R. C., et al. (1979) Life Sci. 24: 351-357 incorporated herein in its entirety).
Receptor Source: Bovine hippocampal membranes
Radioligand: [3H]-RY80 (40-80 Ci/mmol)
Final ligand concentration—[0.8 nM]
Non-specific Determinant: L-655,708—[0.5 μM]
Binding assay 2 followed procedures based on Li and Szabo (Li M., Szabo A., Rosenberg H. Evaluation of native GABAA receptors containing an α5 subunit. Eur. J. Pharmacol. 413: 63-72 (2001)). Incubation Conditions: Reactions are carried out in 50 mM Tris-Citrate (pH 7.8) containing 200 mM NaCl at 0-4° C. for 60 minutes. The reaction is terminated by rapid vacuum filtration onto glass fiber filters. Radioactivity trapped onto the filters is determined and compared to control values in order to ascertain any interactions of test compound with the benzodiazepine (central) binding site.

Structure (SMILES): CCNC(=S)n1ncc2c3nn(-c4ccc(Cl)cc4)c(=O)c-3c[nH]c21 [Compound 6as, 2-(4-chlorophenyl)-N-ethyl-3-oxo-2,3-dihydrodipyrazolo[3,4-b:3′,4′-d]pyridine-6(5H)-carbothioamide]
- EP Modulation [1]: D (D indicates negative modulation >20%)
- % Inhibition at 10 μM [2]: A (A indicates % inhibition >80%)

Structure (SMILES): CCNC(=O)n1nc2[nH]cc3c(=O)n(-c4ccccc4)nc-3c2c1C [Compound 6av, N-ethyl-8-methyl-3-oxo-2-phenyl-2,3-dihydrodipyrazolo[3,4-b:3′,4′-d]pyridine-7(5H)-carboxamide]
- EP Modulation [1]: E (E indicates negative modulation <20%)
- % Inhibition at 0.1 μM [2]: B (B indicates % inhibition <80% and >20%)
- % Inhibition at 10 μM [2]: A (A indicates % inhibition >80%)

Structure (SMILES): CCNC(=O)n1ncc2c3nn(-c4ccc(Cl)cn4)c(=O)c-3c[nH]c21 [Compound 6ay, 2-(5-chloropyridin-2-yl)-N-ethyl-3-oxo-2,3-dihydrodipyrazolo[3,4-b:3′,4′-d]pyridine-6(5H)-carboxamide]
- EP Modulation [1]: D (D indicates negative modulation >20%)
- % Inhibition at 10 μM [2]: A (A indicates % inhibition >80%)

Structure (SMILES): O=C(Nc1ccccc1)n1ncc2c3nn(-c4ccccc4)c(=O)c-3c[nH]c21 [Compound 6h, 3-oxo-N,2-diphenyl-2,3-dihydrodipyrazolo[3,4-b:3′,4′-d]pyridine-6(5H)-carboxamide]
- EP Modulation [1]: D (D indicates negative modulation >20%)
- % Inhibition at 0.1 μM [2]: C (C indicates % inhibition <20%)
- % Inhibition at 10 μM [2]: B (B indicates % inhibition <80% and >20%)

Continued, in another order:

- % Inhibition at 0.1 μM [2]: A (A indicates % inhibition >80%)
- % Inhibition at 10 μM [2]: A (A indicates % inhibition >80%)
Structure (SMILES): CCNC(=O)n1ncc2c3nn(-c4ccccc4)c(=O)c-3c[nH]c21 [Compound 6b, N-ethyl-3-oxo-2-phenyl-2,3-dihydrodipyrazolo[3,4-b:3′,4′-d]pyridine-6(5H)-carboxamide]
- EP Modulation [1]: D (D indicates negative modulation >20%)

- % Inhibition at 10 μM [2]: A (A indicates % inhibition >80%)
Structure (SMILES): CNC(=O)n1ncc2c3nn(-c4ccccc4)c(=O)c-3c[nH]c21 [Compound 6c, N-methyl-3-oxo-2-phenyl-2,3-dihydrodipyrazolo[3,4-b:3′,4′-d]pyridine-6(5H)-carboxamide]
- EP Modulation [1]: D (D indicates negative modulation >20%)
- % Inhibition at 0.1 μM [2]: B (B indicates % inhibition <80% and >20%)

- % Inhibition at 10 μM [2]: A (A indicates % inhibition >80%)
Structure (SMILES): CCCNC(=O)n1ncc2c3nn(-c4ccccc4)c(=O)c-3c[nH]c21 [Compound 6d, 3-oxo-2-phenyl-N-propyl-2,3-dihydrodipyrazolo[3,4-b:3′,4′-d]pyridine-6(5H)-carboxamide]
- EP Modulation [1]: E (E indicates negative modulation <20%)

- % Inhibition at 10 μM [2]: A (A indicates % inhibition >80%)
Structure (SMILES): CCCCNC(=O)n1ncc2c3nn(-c4ccccc4)c(=O)c-3c[nH]c21 [Compound 6f, N-butyl-3-oxo-2-phenyl-2,3-dihydrodipyrazolo[3,4-b:3′,4′-d]pyridine-6(5H)-carboxamide.TFA]
- EP Modulation [1]: D (D indicates negative modulation >20%)

- % Inhibition at 0.1 μM [2]: C (C indicates % inhibition <20%)
- % Inhibition at 10 μM [2]: A (A indicates % inhibition >80%)
Structure (SMILES): O=C(NC1CC1)n1ncc2c3nn(-c4ccccc4)c(=O)c-3c[nH]c21 [Compound 6j, N-cyclopropyl-3-oxo-2-phenyl-2,3-dihydrodipyrazolo[3,4-b:3′,4′-d]pyridine-6(5H)-carboxamide]
- EP Modulation [1]: E (E indicates negative modulation <20%)

- % Inhibition at 0.1 μM [2]: A (A indicates % inhibition >80%)
- % Inhibition at 10 μM [2]: A (A indicates % inhibition >80%)
Structure (SMILES): CCNC(=O)n1nc(C)c2c3nn(-c4ccccc4)c(=O)c-3c[nH]c21 [Compound 6l, N-ethyl-8-methyl-3-oxo-2-phenyl-2,3-dihydrodipyrazolo[3,4-b:3′,4′-d]pyridine-6(5H)-carboxamide]
- EP Modulation [1]: D (D indicates negative modulation >20%)

Source: US9012470B2 (Dart NeuroScience (Cayman) Ltd., priority 2010, dated 2015)
